{"source": "patent US20250172542A1", "about": "“METHOD FOR INDUCING ARTIFICIAL AGEING IN A STEM CELL AND USES OF SAID CELL” (Clock Bio Limited, priority 2022, published 2025)", "key": {"[1]": {"test_system": "GFP-Progerin expression under the cumate switch (CymR/CuO)", "experiment": "Cumate dose response assay (GFP-Progerin expression in iNeurons)", "format": "cell-based, human", "details": "neurons induced with doxycycline and cumate", "method": "(§1) NGN2 and NGN2-Progerin iPSCs were dissociated into single cells with Accutase and plated onto PDL/Geltrex coated dishes at a density of 30K cells per cm^2. Forward programming was initiated 24 hours after the split. The induction was performed in DMEM/F-12 supplemented with Glutamax (100×), Non-Essential Amino Acids (100×), 50 μM 2-Mercaptoethanol (Gibco), 1% Penicillin/Streptomycin, 1 μg/mL Dox. After 2 days of induction, the medium was switched to Neurobasal-medium supplemented with Glutamax (100×), B27 (50×), 10 ng/mL BDNF (Peprotech), 10 ng/mL NT3 (R&D Systems), 1% Penicillin/Streptomycin, and 1 μg/mL Dox. In order to age NGN2-Progerin iNeurons (iNs), at D7 post induction, cumate was added to the medium for 7 days. Pre-aged iNs were induced as described above from 5 days aged NGN-Progerin iPSCs, no additional cumate was added during the induction process.\nIn order to allow for a separate control of NGN2 and progerin expression, the OPTi-OX technology was used and a dual system designed which is based on both the TetOn (Baron and Bujard (2000)) and the cumate switch (Mullick et al. (2006); Sato et al. (2020); and Seo and Schmidt-Dannert (2019)) inducible systems. This new system was referred to as (Opti-OX)^2. The cumate repressor (CymR) was first cloned into the original ROSA26 targeting vector, linked by a 2A sequence to rtTA (FIGS. 7A-F). […]"}, "[2]": {"test_system": "Bob NGN2 and Bob N2P iNs", "experiment": "RT-PCR of neuronal markers in iNeurons treated with or without cumate", "format": "cell-based, human", "details": "RT-PCR relative to PBGD1", "method": "as §1\ncDNA synthesis was performed with the Maxima First Strand cDNA Synthesis Kit (Thermo Fisher Scientific). PowerUp SYBR Green Master Mix (Thermo Fisher Scientific) was used for RT-PCR. Samples were run on the QuantStudio 6 Flex Real-Timer PCR System machine (Applied Biosystems). All samples were analysed in technical duplicates and normalised to the house-keeping gene Porphobilinogen Deaminase 1 (PBGD1). Results were analysed with the ΔΔCt method. […]"}}}
{"smiles": "CC(C)c1ccc(C(=O)O)cc1", "note": "[cumate]", "values": [{"measurement": "GFP expression as a function of cumate dose", "setting": "[1]", "value": "titrated by adjusting the dose"}, {"measurement": "effect of cumate itself on gene expression (MAP2 and synapsin-1 downregulation)", "setting": "[2]", "value": "not responsible for the changes seen in gene expression"}]}
